The source of these data is patent US11186564B2, “Dual NAV1.2/5HT2a inhibitors for treating CNS disorders” (Sunovion Pharmaceuticals Inc., priority 2016, dated 2021).

Some results are limits rather than exact numbers.

The target of this assay is T1, recombinant human serotonin receptor 5-HT2A (Homo sapiens, UniProt P28223).
T1 construct: expressed in transfected cells; method B: loaded with Ca2+ dye
T1 sequence (P28223 whole entry): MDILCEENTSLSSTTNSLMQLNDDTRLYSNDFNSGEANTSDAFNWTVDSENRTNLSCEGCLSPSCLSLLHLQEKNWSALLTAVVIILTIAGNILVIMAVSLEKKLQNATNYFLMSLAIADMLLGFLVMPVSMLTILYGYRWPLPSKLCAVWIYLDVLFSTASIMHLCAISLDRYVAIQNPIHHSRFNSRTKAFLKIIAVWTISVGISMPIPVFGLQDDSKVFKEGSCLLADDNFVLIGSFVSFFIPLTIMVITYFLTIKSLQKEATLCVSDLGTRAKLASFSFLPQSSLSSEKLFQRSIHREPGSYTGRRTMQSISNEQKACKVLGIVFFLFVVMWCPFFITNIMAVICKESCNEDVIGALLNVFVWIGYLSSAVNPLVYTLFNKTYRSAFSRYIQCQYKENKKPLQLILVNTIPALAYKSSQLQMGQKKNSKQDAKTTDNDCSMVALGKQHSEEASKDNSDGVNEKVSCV
Kind of assay: 5-HT2A antagonist Ca2+ assay in CHO-K1 cells (method A aequorin luminescence / method B FLIPR fluorescence). Format: cell-based. As to conditions: antagonist mode vs EC80 of reference agonist, method A or B, read-out: 5HT2A IC50. From the text: The methods utilized to assess the inhibitory activity of compounds on recombinant human serotonin receptor 5-HT2A was based upon previously published approaches [Jerman J C, Brough S J, Gager T, Wood M, Coldwell M C, Smart D, Middlemiss D N. Pharmacological characterisation of human 5-HT2 receptor subtypes. European Journal of Pharmacology 2001 Feb. 23; 414(1):23-30; Le Poul E, Hisada S, Mizuguchi Y, Dupriez V J, Burgeon E, Detheux M. Adaptation of aequorin functional assay to high throughput screening. J Biomolecular Screening 2002 February; 7(1):57-65.] The 5-HT2A receptor signals through Gq-phospholipase signaling cascade, which leads to a transient increase in free intracellular […] concentration. Both 5-HT2A assay methods rely upon monitoring these changes in Ca^2+ concentration.
In method A [Le Poul E, Hisada S, Mizuguchi Y, Dupriez V J, Burgeon E, Detheux M. (2002)], CHO-K1 cells engineered to stably co-express both recombinant human 5-HT2A and mitochondrial apoaequorin are used. […] For agonist testing, 50 microliters of cell suspension is mixed with 50 microliters of a solution containing test compound or reference agonist in a 96-well standard geometry microtiter plate. The resulting emission of light was recorded using a Hamamatsu Functional Drug Screening System 6000 (FDSS 6000) luminometer. For antagonist testing, 100 microliters of the solution of reference agonist (to yield an agonist concentration, EC80, sufficient to cause the cells to generate an 80% maximal luminescence response in the absence of any antagonist) is injected into the mix of cells and test compound, 15 minutes after the first injection. The resulting emission of light is recorded using Hamamatsu FDSS 6000 luminometer. IC50 values are calculated (from compound concentration dependent inhibition of agonist-induced 5-HT2A-dependent light emission) by non-linear least squares regression of the data (percent inhibition) onto equation (1) above.
In method B [Jerman J C, Brough S J, Gager T, Wood M, Coldwell M C, Smart D, Middlemiss D N. (2001)], CHO-K1 cells which had been engineered to stably co-express recombinant human 5-HT2A are used in assay done similarly to method A. In method B, the cells are loaded with a fluorogenic Ca^2+ indicator dye by pre-incubation. Addition of the reference agonist serotonin causes a transient increase in fluorescence in a suspension of the loaded cells, which can be detected using the Molecular Devices fluorometric imaging plate reader (FLIPR), a high-throughput platform for 96-well cell-based assays. Addition of test compounds that are 5-HT2A antagonists, prior to the addition of the agonist (to yield an agonist concentration, EC80, sufficient to cause the cells to generate an 80% maximal fluorescence response in the absence of any antagonist), reduces the amount of fluorescence detected by the FLIPR upon agonist addition. IC50 values are calculated (from compound concentration dependent inhibition of agonist-induced 5-HT2A-dependent fluorescence) by non-linear least squares regression of the data (percent inhibition) onto equation (1) above.
In the case of `OC(COC1CCCCC1)CN1CCC2(CC1)CCN(c1ccccc1)C2` (stereo not drawn) [Example 354, 1-(cyclohexyloxy)-3-(2-phenyl-2,8-diazaspiro[4.5]decan-8-yl)propan-2-ol], the IC50 worked out at 1940 nM.
Turning to `OC(CO[C@@H]1CCCc2ccccc21)CN1CC[C@H](Oc2ccc(F)cc2)C1` (stereo partly drawn) [Example 51, 1-((S)-3-(4-fluorophenoxy)pyrrolidin-1-yl)-3-(((R)-1,2,3,4-tetrahydronaphthalen-1-yl)oxy)propan-2-ol], the IC50 was 490 nM.
The same measure for `O[C@H](COC1CCCCC1)CN1C[C@H]2CC[C@@H](C1)N2c1ccccc1` [Example 300, (S)-1-(cyclohexyloxy)-3-((1R,5S)-8-phenyl-3,8-diazabicyclo[3.2.1]octan-3-yl)propan-2-ol]: greater than 10000 nM.
The same measure for `COc1ccc(O[C@@H]2CCN(CCN3CCc4ccccc4C3=O)C2)cc1` [Example 27, (R)-2-(2-(3-(4-methoxyphenoxy)pyrrolidin-1-yl)ethyl)-3,4-dihydroisoquinolin-1(2H)-one]: 2800 nM.
Regarding `N#Cc1ccc(O[C@H]2CCN(CCN3CCc4ccccc4C3=O)C2)cc1` [Example 32, (S)-4-((1-(2-(1-oxo-3,4-dihydroisoquinolin-2(1H)-yl)ethyl)pyrrolidin-3-yl)oxy) benzonitrile], the IC50 is greater than 16700 nM.
For `O[C@@H](COC1CCCCC1)CN1CCC(Oc2ccccc2)CC1` [Example 234, (R)-1-(cyclohexyloxy)-3-(4-phenoxypiperidin-1-yl)propan-2-ol], the IC50 came out at 30 nM.
As to `O[C@H](COC1CCCCC1)CN1CC2(CC(Oc3ccccc3)CO2)C1` (stereo partly drawn) [Example 371, (2S)-1-(cyclohexyloxy)-3-(7-phenoxy-5-oxa-2-azaspiro[3.4]octan-2-yl)propan-2-ol], the IC50 is 90 nM.
On to `OC(CO[C@H]1CCCc2ccccc21)CN1CC[C@@H](Oc2ccc(F)cc2)C1` (stereo partly drawn) [Example 48, 1-((R)-3-(4-fluorophenoxy)pyrrolidin-1-yl)-3-(((S)-1,2,3,4-tetrahydronaphthalen-1-yl)oxy)propan-2-ol], for which the IC50 was found to be 2220 nM.
`OC(COC1CCCCC1)CN1CCC2(CCCN2c2ccccc2)CC1` (stereo not drawn) [Example 355, 1-(cyclohexyloxy)-3-(1-phenyl-1,8-diazaspiro[4.5]decan-8-yl)propan-2-ol]: the IC50 was greater than 16700 nM.
As to `Fc1ccc(O[C@@H]2CCN(CC3CCc4ccncc43)C2)cc1` (stereo partly drawn) [Example 5, 7-(((R)-3-(4-fluorophenoxy)pyrrolidin-1-yl)methyl)-6,7-dihydro-5H-cyclopenta[c]pyridine], the IC50 is 5880 nM.
Take `C[C@@H]1C[C@]2(CCc3ccccc3O2)CCN1CCN1CCc2ccccc2C1=O` [Example 423, 2-(2-((2S,2′R)-2′-methylspiro[chromane-2,4′-piperidin]-1′-yl)ethyl)-3,4-dihydroisoquinolin-1(2H)-one]: the IC50 was found to be 2810 nM.
Regarding `COc1ccccc1O[C@@H]1CCN(CC2Cc3ccccc3C2)C[C@H]1C` [Example 145, (3R,4R)-1-((2,3-dihydro-1H-inden-2-yl)methyl)-4-(2-methoxyphenoxy)-3-methylpiperidine], the IC50 was 10 nM.
Consider `COc1ccc2c(c1)[C@H](CN1C[C@@H]3CC[C@H]1CN3c1ccccc1)CC2` (single isomer, unassigned) [Compound 312], for which the IC50 is 430 nM.
Regarding `COCc1cccc(OC2CCN(CC3CCc4ccc(OC)cc43)CC2)c1` (stereo not drawn) [Example 111, 1-((6-methoxy-2,3-dihydro-1H-inden-1-yl)methyl)-4-(3-(methoxymethyl)phenoxy)piperidine], the IC50 was 210 nM.
Consider `OC(COC1CCCCC1)CN1CCCC12CCN(c1ccccc1)C2` (stereo not drawn) [Example 349, 1-(cyclohexyloxy)-3-(7-phenyl-1,7-diazaspiro[4.4]nonan-1-yl)propan-2-ol], for which the 50% inhibitory concentration (IC50) is greater than 16700 nM.
In the case of `OC(CO[C@H]1CCc2ccccc21)CN1CC[C@H](Oc2cccc(F)c2)C1` (stereo partly drawn) [Example 35, 1-(((S)-2,3-dihydro-1H-inden-1-yl)oxy)-3-((S)-3-(3-fluorophenoxy)pyrrolidin-1-yl)propan-2-ol], the IC50 came out at 7130 nM.
Take `C[C@H]1C[C@@]2(CCc3ccccc3O2)CCN1CCN1CCc2ccccc2C1=O` [Example 424, 2-(2-((2R,2′S)-2′-methylspiro[chromane-2,4′-piperidin]-1′-yl)ethyl)-3,4-dihydroisoquinolin-1(2H)-one]: the IC50 worked out at 50 nM.
The same measure for `COc1ccccc1O[C@H]1CCN(CCN2CCc3ccccc3C2=O)C1` [Example 14, (S)-2-(2-(3-(2-methoxyphenoxy)pyrrolidin-1-yl)ethyl)-3,4-dihydroisoquinolin-1(2H)-one]: 7470 nM.
On to `C[C@@H]1C[C@]2(CCc3ccccc3O2)CCN1CCO[C@H]1CCc2ccccc21` [Example 435, (2S,2′R)-1′-(2-(((S)-2,3-dihydro-1H-inden-1-yl)oxy)ethyl)-2′-methylspiro[chromane-2,4′-piperidine]], for which the IC50 was determined as 370 nM.
On to `c1ccc(N2[C@@H]3C[C@H]2CN(CC2CCc4ccccc42)C3)cc1` (stereo partly drawn) [Example 293, (1R,5S)-3-((2,3-dihydro-1H-inden-1-yl)methyl)-6-phenyl-3,6-diazabicyclo[3.1.1]heptane], for which the IC50 turned out to be 1020 nM.
Take `c1ccc2c(c1)CCC1(CCN(CC3CCc4cnccc43)CC1)O2` (stereo not drawn) [Example 408, 1′-((6,7-dihydro-5H-cyclopenta[c]pyridin-5-yl)methyl)spiro[chromane-2,4′-piperidine]]: the IC50 turned out to be 740 nM.
The same measure for `CC1(C)Oc2ccccc2C1CN1CCC(Oc2ccccc2F)CC1` (stereo not drawn) [Example 133, 1-((2,2-dimethyl-2,3-dihydrobenzofuran-3-yl)methyl)-4-(2-fluorophenoxy)piperidine]: 290 nM; for `C[C@@H]1C[C@@]2(CCc3ccccc3O2)CCN1CCO[C@H]1CCc2ccccc21` [Example 434, (2R,2′R)-1′-(2-(((S)-2,3-dihydro-1H-inden-1-yl)oxy)ethyl)-2′-methylspiro[chromane-2,4′-piperidine]]: 730 nM; for `CC(CN1CCc2ccccc2C1=O)N1CC[C@@H](Oc2ccc(F)cc2)C1` (stereo partly drawn) [Example 33, 2-(2-((R)-3-(4-fluorophenoxy)pyrrolidin-1-yl)propyl)-3,4-dihydroisoquinolin-1(2H)-one]: greater than 10000 nM.
For `COc1ccccc1OC1CCN(CC2Cc3ccccc3C2)[C@@H](C)C1` (single isomer, unassigned) [Example 148], the IC50 worked out at 1440 nM.
Turning to `COc1ccc2c(c1)C(CN1CCC(Oc3ccc(C#N)cc3)CC1)CC2` (stereo not drawn) [Example 120, 4-((1-((6-methoxy-2,3-dihydro-1H-inden-1-yl)methyl)piperidin-4-yl)oxy)benzonitrile], the IC50 came to 440 nM.
As for `c1ccc(CCN2CCC(Oc3ccccc3)CC2)cc1` [Example 214, 1-phenethyl-4-phenoxypiperidine], the IC50 is 40 nM.
The same measure for `COc1ccccc1O[C@@H]1CCN(CCN2CCc3ccccc3C2=O)C1` [Example 13, (R)-2-(2-(3-(2-methoxyphenoxy)pyrrolidin-1-yl)ethyl)-3,4-dihydroisoquinolin-1(2H)-one]: 1930 nM; for `COc1cccc(O[C@@H]2CCN(CCN3CCc4ccccc4C3=O)C2)c1` [Example 21, (R)-2-(2-(3-(3-methoxyphenoxy)pyrrolidin-1-yl)ethyl)-3,4-dihydroisoquinolin-1(2H)-one]: 2560 nM; for `Fc1cccc2c1C(CN1CCC(Oc3ccncc3)CC1)CC2` (stereo not drawn) [Example 118, 4-((1-((7-fluoro-2,3-dihydro-1H-inden-1-yl)methyl)piperidin-4-yl)oxy)pyridine]: 1780 nM.
In the case of `OC(COC1CCCCC1)CN1CCC2(CCCN2c2ccccc2)C1` (stereo not drawn) [Example 348, 1-(cyclohexyloxy)-3-(1-phenyl-1,7-diazaspiro[4.4]nonan-7-yl)propan-2-ol], the IC50 stood at 7340 nM.
Consider `c1ccc(CN2CCC3(CCc4ccccc4O3)CC2)cc1` [Example 415, 1′-benzylspiro[chromane-2,4′-piperidine]], for which the IC50 stood at 2150 nM.
Consider `COc1cccc(OC2CCN(CC3Cc4cccnc4C3)CC2)c1` (stereo not drawn) [Example 153, 6-((4-(3-methoxyphenoxy)piperidin-1-yl)methyl)-6,7-dihydro-5H-cyclopenta[b]pyridine], for which the half-maximal inhibitory concentration (IC50) amounted to 760 nM.

Usually IC50 stands for the concentration needed to halve the response being measured.
